# What was measured:
# [1] = Aqueous solubility of the salts from base screening; format: physicochemical; settings: salt of the acid of Formula I with the named base
# CRTH2 = target: T1, CRTH2 (Homo sapiens, UniProt Q9Y5Y4); assay: Competitive radioligand (3H-PGD2) binding assay using CRTH2-transfected cells; settings: 1 nM 3H-PGD2, FIG. 20
# T1 construct: expressed in transfected cells
# T1 sequence (Q9Y5Y4 1-395): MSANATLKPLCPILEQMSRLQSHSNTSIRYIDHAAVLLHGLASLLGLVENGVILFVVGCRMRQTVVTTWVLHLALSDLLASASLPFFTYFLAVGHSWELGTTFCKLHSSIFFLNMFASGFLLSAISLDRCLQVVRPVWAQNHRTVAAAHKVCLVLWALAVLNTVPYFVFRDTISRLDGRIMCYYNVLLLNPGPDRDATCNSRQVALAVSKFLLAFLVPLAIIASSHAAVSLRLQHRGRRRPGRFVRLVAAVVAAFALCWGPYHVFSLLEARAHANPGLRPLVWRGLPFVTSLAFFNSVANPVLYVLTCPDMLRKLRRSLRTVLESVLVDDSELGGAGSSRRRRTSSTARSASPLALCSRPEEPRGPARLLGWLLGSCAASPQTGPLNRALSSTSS
# Protocol: The surface expression of CRTH2 on the transfected cell lines was monitored periodically during culture and prior to each competitive radioligand binding assay. […] The cells were then washed in 2 mL of FACS buffer (PBS containing 1% BSA (Fraction V) and 0.1% sodium azide. The cells were subsequently incubated on ice with a FITC-conjugated anti-rat antibody (goat anti-rat Ig-FITC). After washed with cold FACS buffer, the cells were analyzed using a FACScan II analyzer and CellQuest software, both from Becton Dickinson (Mountain View, Calif.).
# The test compounds were dissolved in DMSO at a concentration of 100 mM as stock solutions. Serial dilutions from 10 μM were made in binding buffer prior to assay. Transfected cells were resuspended in binding buffer (50 mM Tris-HCl, 40 mM MgCl2, and 0.1% bovine serum albumin, at pH 7.4) at a concentration of 4×10^6/mL at room temperature. Transfected cells were then seeded in U-bottom polypropylene 96-well plates (Fisher) by adding 50 μL of the cell suspension, followed by addition of 10 μL of ^3H-PGD2, 10 μL of the test compound solutions at a series of concentrations or controls, 30 μL of the binding buffer to bring the final volume to 100 μL. […] Scintillant (50 μL; Microscint™20, Perkin Elmer, Boston, Mass.) was added to each well and the radioactivity was counted on a TopCount (Packard Bioscience, Meriden, Conn.). […]
# DP1 = target: T2, DP1 (Homo sapiens, UniProt Q13258); assay: Competitive radioligand (3H-PGD2) binding assay using DP1-transfected cells; settings: CRTH2- versus DP1-transfected cells, FIGS. 20 and 21
# T2 sequence (Q13258 1-359): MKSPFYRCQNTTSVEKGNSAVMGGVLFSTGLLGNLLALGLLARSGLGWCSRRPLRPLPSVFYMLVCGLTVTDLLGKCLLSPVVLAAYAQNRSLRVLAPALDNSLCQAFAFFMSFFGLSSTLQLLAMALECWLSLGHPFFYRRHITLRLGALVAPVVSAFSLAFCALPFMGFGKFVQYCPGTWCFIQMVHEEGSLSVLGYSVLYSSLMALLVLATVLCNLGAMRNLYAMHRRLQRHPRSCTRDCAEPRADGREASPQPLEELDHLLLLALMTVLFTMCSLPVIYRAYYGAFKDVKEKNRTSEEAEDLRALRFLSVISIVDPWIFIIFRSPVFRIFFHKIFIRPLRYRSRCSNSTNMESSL
# Protocol: The binding affinity and selectivity of the amine salts of 4,6-bis(dimethylamino)-2-(4-(4-(trifluoromethyl)benzamido)benzyl)pyrimidin-5-yl}acetic acid provided herein were evaluated using a competitive radioligand binding assay with stably-transfected cell lines expressing CRTH2 or DP1.
# The CRTH2 and DP1 stable cell lines were generated according to the procedure described by Sugimoto et al. (J. Pharm. Exp. Therap. 2003, 305, 347-352). These cell lines were maintained in RPMI 1640 culture medium containing HEPES buffer (25 mM), FCS (10%), L-glutamine (2 mM), penicillin (10 IU/mL), streptomycin (100 μg/mL), and puromycin (1 μg/mL).
# Radioligand binding analyses were performed according to the methods of Sugimoto et al. (J. Pharm. Exp. Therap. 2003, 305, 347-352; Eur. J. Pharmacol. 2005, 524, 30-37). The test compounds were dissolved in DMSO at a concentration of 100 mM as stock solutions. Serial dilutions from 10 μM were made in binding buffer prior to assay. Transfected cells were resuspended in binding buffer (50 mM Tris-HCl, 40 mM MgCl2, and 0.1% bovine serum albumin, at pH 7.4) at a concentration of 4×10^6/mL at room temperature. […] Scintillant (50 μL; Microscint™20, Perkin Elmer, Boston, Mass.) was added to each well and the radioactivity was counted on a TopCount (Packard Bioscience, Meriden, Conn.). […]
Compound,Aqueous Solubility at 25° C. [1] [µg/mL],binding affinity for CRTH2 (CRTH2),binding selectivity for CRTH2 (DP1)
"CN(C)c1nc(Cc2ccc(NC(=O)c3ccc(C(F)(F)F)cc3)cc2)nc(N(C)C)c1CC(=O)O.c1ccc(CNCCNCc2ccccc2)cc1 [Benzathine, Benzathine Salt of {4,6-Bis(dimethylamino)-2-(4-(4-(trifluoromethyl)benzamido)benzyl)pyrimidin-5-yl}Acetic Acid]",80,–,–
"piperazine Salt of {4,6-Bis(dimethylamino)-2-(4-(4-(trifluoromethyl)benzamido)benzyl)pyrimidin-5-yl}Acetic Acid",5400,–,–
"CN(C)c1nc(Cc2ccc(NC(=O)c3ccc(C(F)(F)F)cc3)cc2)nc(N(C)C)c1CC(=O)O [Formula I, {4,6-bis(dimethyl-amino)-2-(4-(4-(trifluoro-methyl)benzamido)benzyl)pyrimidin-5-yl}acetic acid]",–,high affinity,bind selectively

# Source: US8278310B2, “Amine salts of a CRTH2 antagonist” (Actimis Pharmaceuticals, Inc., priority 2007, dated 2012)
